Laboratory results published in the SangsterLogP compilation.

Legend:
[1] = method code SF-AS, from DOI: 10.1021/jf00085a044

SMILES | logP [1] | logP
CN(C)C(=O)Nc1ccc(Oc2nnn(C3CCCCC3)n2)cc1 | 2.67 | 
CN(C)C(=O)Nc1ccc(Oc2nnnn2C2CCCCC2)cc1 | 2.18 | 
CN(C)C(=O)Nc1ccc(Oc2nnnn2Cc2ccccc2)cc1 |  | 1.7
CN(C)C(=O)Nc1ccc(Oc2nnn(CCC#N)n2)cc1 | 0.28 | 
CCn1nnc(Oc2ccc(NC(=O)N(C)C)cc2)n1 | 1.1 | 
CCCCCCCCn1nnnc1Oc1ccc(NC(=O)N(C)C)cc1 | 3.96 | 
CCCCCCCCn1nnc(Oc2ccc(NC(=O)N(C)C)cc2)n1 |  | 4.4
CN(C)C(=O)Nc1ccc(Oc2nnn(Cc3ccccc3)n2)cc1 |  | 2.25
C=CCn1nnc(Oc2ccc(NC(=O)N(C)C)cc2)n1 |  | 1.65
C#CCn1nnc(Oc2ccc(NC(=O)N(C)C)cc2)n1 |  | 1.65

Results, then the compound that gave them:

logP [1] | logP | SMILES
 | 1.7 | CCn1nnc(Oc2ccc(NC(=O)N(C)C)cc2Cl)n1
 | 1.65 | CN(C)C(=O)Nc1ccc(Oc2nnnn2C(C)(C)C)cc1
 | 1.45 | CC(C)n1nnc(Oc2ccc(NC(=O)N(C)C)cc2)n1
 | 1 | C=CCn1nnnc1Oc1ccc(NC(=O)N(C)C)cc1
0.63 |  | CN(C)C(=O)Nc1ccc(Oc2nnn(C)n2)cc1
2.08 |  | CN(C)C(=O)Nc1ccc(Oc2nnn(C(C)(C)C)n2)cc1
1.5 |  | CCn1nnnc1Oc1ccc(NC(=O)N(C)C)cc1Cl
0.7 |  | CCOC(=O)Cn1nnnc1Oc1ccc(NC(=O)N(C)C)cc1
 | 1 | C#CCn1nnnc1Oc1ccc(NC(=O)N(C)C)cc1
 | 2.25 | CN(C)C(=O)Nc1ccc(Oc2nnnn2C(C)(C)C)c(Cl)c1
